Test systems include HOP-18 NSCLC; RPMI-8226 leukemia; HOP-92 NSCLC; HCC-2998 colon; DLD-1 colon; RXF 393 renal; 786-0 renal; SR leukemia; BT-549 breast; MDA-N; MDA-MB-231 breast.
Common to all, as to experiment: inhibition of tumour cell growth, NCI panel, 48 h

The source of these data is PubChem BioAssay (NCI).

Molecules are shown by their SMILES. Values joined by “and” are separate entries in the source; they are usually repeats but may differ in a detail not shown here. Equal entries are not always repeated.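 Interpolation was linear, between the two tested concentrations surrounding the appropriate level; five concentrations were tested over 48 hours in 96-well plates. Abbreviation: GI50, concentration required for 50% inhibition of growth. TGI: total growth inhibition.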 Bounds are passed on as bounds.

`CCN(CC)/C(=C\Cl)Nc1ccccn1`: the TGI in the test on HOP-18 NSCLC, in the test with RPMI-8226 leukemia, with HOP-92 NSCLC, in the test with HCC-2998 colon, in the test with DLD-1 colon and with RXF 393 renal was over 100 µM throughout. The TGI in the test with 786-0 renal was over 100 µM.
With `C=CCOCCCC(=O)C(=[N+]=[N-])C(=O)OC`, the TGI in the test with HOP-18 NSCLC, in the test on RPMI-8226 leukemia, with HOP-92 NSCLC, with HCC-2998 colon, in the test on DLD-1 colon and with SR leukemia was over 100 µM each time. Moreover, the TGI in the test on RXF 393 renal and in the test on 786-0 renal was over 100 µM each time.
For the molecule `Cc1c(Cl)c(=O)oc2cc(OCC(=O)c3ccccc3)ccc12`, the TGI in the test with BT-549 breast was over 100 µM; with HOP-92 NSCLC, over 100 µM; in the test on HCC-2998 colon, over 100 µM; with MDA-N it was over 100 µM; with SR leukemia, 10.7 µM; with MDA-MB-231 breast, 75.4 µM. In addition, the TGI in the test with RXF 393 renal is over 100 µM.
For the molecule `CC(=O)C1(c2ccccc2)CCCN(C)CC1` (configuration not stated), the TGI in the test on BT-549 breast, in the test with RPMI-8226 leukemia, with HOP-92 NSCLC, in the test with HCC-2998 colon, in the test on SR leukemia and in the test on MDA-MB-231 breast was over 100 µM in each case.
As to `CN(C)CCNc1c([N+](=O)[O-])cc2c3c(cccc13)C(=O)N(CCN(C)C)C2=O`, the TGI is 4.6 µM in the test with HOP-18 NSCLC; 11.6 µM in the test with RPMI-8226 leukemia; 2.36 µM in the test on HOP-92 NSCLC; 2.72 µM in the test with HCC-2998 colon; 6.02 µM in the test with DLD-1 colon; 3.69 µM in the test on RXF 393 renal.
For `COc1nc(C#CCCCC#N)nc(OC)n1`, the TGI was 33.1 µM in the test with BT-549 breast; 56.1 µM in the test on MDA-N; over 100 µM in the test with SR leukemia; 29.3 µM with MDA-MB-231 breast; 30.9 µM in the test on RXF 393 renal; 41.7 µM in the test on 786-0 renal.
Consider `CN1CCN(CCCOc2ccc3ncnc(Nc4ccc(Oc5cccc(C(F)(F)F)c5)c(Cl)c4)c3c2)CC1`, for which the GI50 in the test with HOP-92 NSCLC is 1.33 µM; in the test on HCC-2998 colon, 1.55 µM; with MDA-MB-231 breast, 1.72 µM; in the test on RXF 393 renal, 1.49 µM. Also, the TGI in the test with HOP-92 NSCLC was found to be 3.9 µM; in the test on HCC-2998 colon it was 3.16 µM; in the test with MDA-MB-231 breast, 3.15 µM; with RXF 393 renal, 2.93 µM.
As to `O=C1CC(N2C(=O)/C(=C/C(Cl)=C\c3ccc([N+](=O)[O-])cc3)SC2=S)C(=O)N1c1ccc(Cl)cc1` (configuration not stated), the GI50 in the test with BT-549 breast is 1.75 µM; with RPMI-8226 leukemia it was 0.303 µM; with HOP-92 NSCLC, 2.58 µM; in the test on HCC-2998 colon, 1.59 µM; in the test with SR leukemia, 0.544 µM; in the test with MDA-MB-231 breast, 3.75 µM. Besides, the GI50 in the test on RXF 393 renal was 1.26 µM. Further, the TGI with BT-549 breast worked out at 3.74 µM; in the test on RPMI-8226 leukemia it was 0.979 µM; with HOP-92 NSCLC, 6.79 µM; in the test with HCC-2998 colon, 3.03 µM; with SR leukemia it was 14.2 µM; in the test on MDA-MB-231 breast it was 47.8 µM. For the same molecule, the TGI in the test with RXF 393 renal came to 2.72 µM.
As for `CCCCC1Cc2cc(OC)ccc2-c2nc3cc(OC)ccc3n21` (configuration not stated) (tested in a mixture with another compound), the TGI in the test on BT-549 breast was 33.3 µM; in the test on RPMI-8226 leukemia, 24.4 µM; with HOP-92 NSCLC, 17.1 µM; with MDA-N, 27 µM; in the test with SR leukemia it was 32.1 µM; in the test with MDA-MB-231 breast, 25.7 µM. Moreover, the values for the TGI in the test on RXF 393 renal and with 786-0 renal were 30.8 µM and 27.8 µM, respectively.
`O=C(NN1C(=O)/C(=C/c2ccc(Cl)cc2)N=C1c1ccccc1)c1c(Cl)c(Cl)c(Cl)c(Cl)c1-c1nc2ccccc2[nH]1`: the TGI in the test with BT-549 breast was determined as 32.8 µM; in the test with HOP-92 NSCLC, 37.3 µM; in the test with HCC-2998 colon it was 31.8 µM; in the test on MDA-N it was 31.5 µM; in the test on SR leukemia, 27.1 µM; in the test with 786-0 renal, 55.9 µM.
In the case of `O=c1c2c([nH]c3nccn13)CCCC2`, the TGI in the test with RPMI-8226 leukemia, in the test with HCC-2998 colon, with SR leukemia, in the test on MDA-MB-231 breast and in the test with RXF 393 renal was over 10 µM in each case.
As to `Cc1c(N)nc([C@H](CC(N)=O)NC[C@H](N)C(N)=O)nc1C(=O)N[C@H](C(=O)N[C@H](C)[C@@H](O)[C@H](C)C(=O)N[C@H](C(=O)NCCc1nc(-c2nc(C(=O)NCCC[S+](C)C)cs2)cs1)[C@@H](C)O)C(OC1OC(CO)C(O)C(O)C1OC1OC(CO)C(O)C(OC(N)=O)C1O)c1cnc[nH]1` (some centres not stated), the GI50 is 6.48 µM and 7.49 µM with BT-549 breast; over 29 µM in the test on DLD-1 colon; 8.86 µM and 23.8 µM with MDA-N; 23.3 µM and 78.8 µM with MDA-MB-231 breast. Also, the TGI with BT-549 breast is 23.8 µM and 25 µM and > 100 µM; with HOP-18 NSCLC, 13.3 µM; with DLD-1 colon, 23.7 µM and > 29 µM; in the test on MDA-N it was 24.4 µM and 25 µM and > 100 µM; with MDA-MB-231 breast, 25 µM and > 100 µM.
Take `C=C1C(C2(C)C=CC(=O)OC3(C)COC(=O)CC32)C(OC=O)C(OC(=O)C(O)C(C)CC)C2(C)C(c3ccoc3)CC(OC(C)=O)C12O` (configuration not stated): the TGI with BT-549 breast, in the test on RPMI-8226 leukemia, in the test on HOP-92 NSCLC, in the test on HCC-2998 colon, in the test with MDA-N and in the test with SR leukemia was over 100 µM in each case. In addition, the TGI in the test with MDA-MB-231 breast, with RXF 393 renal and with 786-0 renal was over 100 µM throughout.
For the molecule `COc1ccc(/C=c2/[nH]c(=O)/c(=C\c3ccc(OCc4ccccc4)cn3)[nH]c2=O)cc1`, the TGI was over 100 µM in the test with BT-549 breast; 80 µM with HOP-92 NSCLC; over 100 µM in the test on HCC-2998 colon; over 100 µM with MDA-N; over 100 µM in the test on SR leukemia; over 100 µM with MDA-MB-231 breast. Moreover, the values for the TGI in the test with RXF 393 renal and in the test on 786-0 renal were 83.5 µM and over 100 µM, respectively.
